Patent US12508306B2, “Compositions and methods of use thereof for treatment of metabolic diseases and related disorders” (Washington University, priority 2018, dated 2025)

Legend:
Arg2 [1] = experiment: Arg2 gene expression in cultured primary hepatocytes (RNA-seq, qPCR); assay type: cell-based, murine
Description: AML12 cells (CRL-2254) were purchased directly from the American Type Culture Collection (ATCC) and propagated and maintained precisely per manufacturer specification. Primary hepatocyte cell isolation, culture and treatment Primary murine hepatocytes obtained from WT mice were isolated^24,25,31 and cultured and maintained in regular DMEM growth media (Sigma, #D5796) containing 10% FBS. For in vitro starvation experiments, “starved” media contained 1 g/L glucose and 0:5% FBS was used. Cultures were lysed in Trizol and subjected to downstream analysis. In vitro genetic knockdown was achieved via siRNA transfection using Lipofectamine 3000 from Invitrogen (L3000015). Trehalose was obtained from Sigma Aldrich (St. Louis, MO) and was >97% purity by HPLC. Three percent trehalose water (w/v) fed ad libitum was used in all in vivo experiments.
(§1) Total RNA was prepared by homogenizing snap-frozen livers or cultured hepatocytes in Trizol reagent (Invitrogen #15596026) according to the manufacturer's protocol. cDNA was prepared using Qiagen Quantitect reverse transcriptase kit (Qiagen #205310). Real-time qPCR was performed with Step-One Plus Real-Time PCR System (Applied Biosystems) using SYBR Green master Mix Reagent (Applied Biosystems) and specific primer pairs. Relative gene expression was calculated by a comparative method using values normalized to the expression of an internal control gene.

Arg2 [2] = experiment: Hepatic Arg2 expression by qPCR and immunoblot in mice subjected to trehalose feeding; assay type: in vivo; settings: mice fed 3% trehalose water ad libitum, 5 days
Description: AML12 cells (CRL-2254) were purchased directly from the American Type Culture Collection (ATCC) and propagated and maintained precisely per manufacturer specification. Primary hepatocyte cell isolation, culture and treatment Primary murine hepatocytes obtained from WT mice were isolated^24,25,31 and cultured and maintained in regular DMEM growth media (Sigma, #D5796) containing 10% FBS. For in vitro starvation experiments, “starved” media contained 1 g/L glucose and 0:5% FBS was used. Cultures were lysed in Trizol and subjected to downstream analysis. In vitro genetic knockdown was achieved via siRNA transfection using Lipofectamine 3000 from Invitrogen (L3000015). […]
as §1, with “Real-time qPCR was performed with Step-One Plus Real-Time PCR System (Applied Biosystems) using SYBR Green master Mix Reagent (Applied Biosystems) and specific primer pairs.” left out
Tissues were homogenized in RIPA buffer supplemented with protease and phosphatase inhibitors (Thermo Scientific). […] Protein concentration was determined by BCA Assay Kit (Thermo Scientific) and was adjusted to 2 mg/mL. […] Protein expression levels were quantified with Image Lab software and normalized to the levels of β-actin or GAPDH.

[3] = read-out: Km for arginine; cited from earlier work

Molecule: OCC1OC(OC2OC(CO)C(O)C(O)C2O)C(O)C(O)C1O (centres unmarked) [Lactotrehalose, lactotrehalose]
- Arg2 expression compared with native trehalose at equivalent doses (Arg2 [1]; primary hepatocytes, 10 mM and 100 mM): significantly enhanced

Molecule: OC[C@H]1O[C@H](O[C@H]2O[C@H](CO)[C@@H](O)[C@H](O)[C@H]2O)[C@H](O)[C@@H](O)[C@@H]1O [trehalose]
- Arg2 induction by qPCR and immunoblot (Arg2 [1]; primary hepatocytes, 1 mM, 10 mM, and 100 mM, within 24 h): rapid, dose-dependent, cell autonomous Arg2 induction
- Arg2 expression by RNA-seq (Arg2 [1]; trehalose-treated primary hepatocytes relative to untreated hepatocytes): among the most highly upregulated genes
- hepatic Arg2 mRNA and protein (Arg2 [2]): induced Arg2 mRNA and protein

B1: human arginase 1: human arginase 1 enzyme (protein, UniProt P05089 1-322, looked up)
Arginase-1: MSAKSRTIGIIGAPFSKGQPRGGVEEGPTVLRKAGLLEKLKEQECDVKDYGDLPFADIPNDSPFQIVKNPRSVGKASEQLAGKVAEVKKNGRISLVLGGDHSLAIGSISGHARVHPDLGVIWVDAHTDINTPLTTTSGNLHGQPVSFLLKELKGKIPDVPGFSWVTPCISAKDIVYIGLRDVDPGEHYILKTLGIKYFSMTEVDRLGIGKVMEETLSYLLGRKKRPIHLSFDVDGLDPSFTPATGTPVVGGLTYREGLYITEEIYKTGLLSGLDIMEVNPSLGKTPEEVTRTVNTAVAITLACFGLAREGNHKPIDYLNPPK
- Km [3]: ~45 mM
